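Each compound was tested at five concentrations against cells in 96-well plates for 48 hours. GI50 is the concentration that inhibits growth by half. TGI denotes the concentration required for complete inhibition of growth.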
How the values were obtained:
Assay in all cases: NCI tumour cell line growth inhibition, 48 h; in the data active = GI50 below about 0.43 µM; inactive = the rest
786-0 renal = test system: 786-0 renal
A498 renal = test system: A498 renal
A549 NSCLC = test system: A549 NSCLC
ACHN renal = test system: ACHN renal
BT-549 breast = test system: BT-549 breast
CAKI-1 renal = test system: CAKI-1 renal
CCRF-CEM leukemia = test system: CCRF-CEM leukemia
COLO 205 colon = test system: COLO 205 colon
DU-145 prostate = test system: DU-145 prostate
EKVX NSCLC = test system: EKVX NSCLC
HCC-2998 colon = test system: HCC-2998 colon
HCT-116 colon = test system: HCT-116 colon
HCT-15 colon = test system: HCT-15 colon
HL-60(TB) leukemia = test system: HL-60(TB) leukemia
HOP-62 NSCLC = test system: HOP-62 NSCLC
HOP-92 NSCLC = test system: HOP-92 NSCLC
HS 578T breast = test system: HS 578T breast
HT29 colon = test system: HT29 colon
IGROV1 ovarian = test system: IGROV1 ovarian
K-562 leukemia = test system: K-562 leukemia
KM12 colon = test system: KM12 colon
LOX IMVI melanoma = test system: LOX IMVI melanoma
M14 melanoma = test system: M14 melanoma
MALME-3M melanoma = test system: MALME-3M melanoma
MCF7 breast = test system: MCF7 breast
MDA-MB-231 breast = test system: MDA-MB-231 breast
MDA-MB-435 = test system: MDA-MB-435
MDA-MB-468 breast = test system: MDA-MB-468 breast
MOLT-4 leukemia = test system: MOLT-4 leukemia
NCI-H226 lung = test system: NCI-H226 lung
NCI-H23 lung = test system: NCI-H23 lung
NCI-H460 lung = test system: NCI-H460 lung
NCI-H522 lung = test system: NCI-H522 lung
NCI/ADR-RES ovarian = test system: NCI/ADR-RES ovarian
OVCAR-3 ovarian = test system: OVCAR-3 ovarian
OVCAR-4 ovarian = test system: OVCAR-4 ovarian
OVCAR-5 ovarian = test system: OVCAR-5 ovarian
OVCAR-8 ovarian = test system: OVCAR-8 ovarian
PC-3 prostate = test system: PC-3 prostate
RPMI-8226 leukemia = test system: RPMI-8226 leukemia
RXF 393 renal = test system: RXF 393 renal
SF-268 CNS = test system: SF-268 CNS
SF-295 CNS = test system: SF-295 CNS
SF-539 CNS = test system: SF-539 CNS
SK-MEL-2 melanoma = test system: SK-MEL-2 melanoma
SK-MEL-28 melanoma = test system: SK-MEL-28 melanoma
SK-MEL-5 melanoma = test system: SK-MEL-5 melanoma
SK-OV-3 ovarian = test system: SK-OV-3 ovarian
SN12C renal = test system: SN12C renal
SNB-19 CNS = test system: SNB-19 CNS
SNB-75 CNS = test system: SNB-75 CNS
SR leukemia = test system: SR leukemia
SW-620 colon = test system: SW-620 colon
T-47D breast = test system: T-47D breast
TK-10 renal = test system: TK-10 renal
U251 CNS = test system: U251 CNS
UACC-257 melanoma = test system: UACC-257 melanoma
UACC-62 melanoma = test system: UACC-62 melanoma
UO-31 renal = test system: UO-31 renal

CN1C(=O)N(C)C2SC(N/N=C/c3cccs3)=NC21 (stereo not drawn)
7.61 µM: TGI (SNB-75 CNS)
9.74 µM: TGI (HS 578T breast)
> 100 µM: TGI (786-0 renal) | TGI (A498 renal) | TGI (A549 NSCLC) | TGI (ACHN renal) | TGI (BT-549 breast) | TGI (CAKI-1 renal) | TGI (CCRF-CEM leukemia) | TGI (DU-145 prostate) | TGI (EKVX NSCLC) | TGI (HCT-116 colon) | TGI (HCT-15 colon) | TGI (HOP-62 NSCLC) | TGI (HOP-92 NSCLC) | TGI (IGROV1 ovarian) | TGI (K-562 leukemia) | TGI (KM12 colon) | TGI (LOX IMVI melanoma) | TGI (M14 melanoma) | TGI (MALME-3M melanoma) | TGI (MCF7 breast) | TGI (MOLT-4 leukemia) | TGI (NCI-H226 lung) | TGI (NCI-H23 lung) | TGI (NCI-H460 lung) | TGI (OVCAR-4 ovarian) | TGI (OVCAR-8 ovarian) | TGI (PC-3 prostate) | TGI (RPMI-8226 leukemia) | TGI (SF-268 CNS) | TGI (SF-295 CNS) | TGI (SK-MEL-28 melanoma) | TGI (SK-MEL-5 melanoma) | TGI (SN12C renal) | TGI (SNB-19 CNS) | TGI (SR leukemia) | TGI (SW-620 colon) | TGI (T-47D breast) | TGI (TK-10 renal) | TGI (U251 CNS) | TGI (UACC-257 melanoma) | TGI (UACC-62 melanoma) | TGI (UO-31 renal)
10.4 µM: TGI (NCI-H522 lung)
38.2 µM: TGI (NCI/ADR-RES ovarian)
7.27 µM: TGI (SK-MEL-2 melanoma)
7.36 µM: TGI (HL-60(TB) leukemia)
11.5 µM: TGI (HT29 colon)
88.3 µM: TGI (MDA-MB-231 breast)
30.8 µM: TGI (OVCAR-3 ovarian)
92 µM: TGI (SK-OV-3 ovarian)
4.18 µM: TGI (MDA-MB-435)
inactive: GI50 (786-0 renal) 14.3 µM | GI50 (A498 renal) 22.7 µM | GI50 (A549 NSCLC) 9.64 µM | GI50 (ACHN renal) 12 µM | GI50 (BT-549 breast) 3.61 µM | GI50 (CAKI-1 renal) 4.12 µM | GI50 (CCRF-CEM leukemia) 3.96 µM | GI50 (COLO 205 colon) 4.47 µM | GI50 (DU-145 prostate) 30 µM | GI50 (EKVX NSCLC) 7.93 µM | GI50 (HCC-2998 colon) 8.21 µM | GI50 (HCT-116 colon) 3.98 µM | GI50 (HCT-15 colon) 3.92 µM | GI50 (HL-60(TB) leukemia) 2.39 µM | GI50 (HOP-62 NSCLC) 7.45 µM | GI50 (HOP-92 NSCLC) > 100 µM | GI50 (HS 578T breast) 2.63 µM | GI50 (HT29 colon) 3.03 µM | GI50 (IGROV1 ovarian) 5.58 µM | GI50 (K-562 leukemia) 2.96 µM | GI50 (KM12 colon) 4.97 µM | GI50 (LOX IMVI melanoma) 5.26 µM | GI50 (M14 melanoma) 3.32 µM | GI50 (MALME-3M melanoma) 3.83 µM | GI50 (MCF7 breast) 3.98 µM | GI50 (MDA-MB-231 breast) 4.89 µM | GI50 (MDA-MB-435) 1.58 µM | GI50 (MDA-MB-468 breast) 1.89 µM | GI50 (MOLT-4 leukemia) 4.26 µM | GI50 (NCI-H226 lung) 7.53 µM | GI50 (NCI-H23 lung) 17.7 µM | GI50 (NCI-H460 lung) 3.98 µM | GI50 (NCI-H522 lung) 2.74 µM | GI50 (NCI/ADR-RES ovarian) 3.91 µM | GI50 (OVCAR-3 ovarian) 3.43 µM | GI50 (OVCAR-4 ovarian) > 100 µM | GI50 (OVCAR-5 ovarian) 6.45 µM | GI50 (OVCAR-8 ovarian) 14.5 µM | GI50 (PC-3 prostate) 6.77 µM | GI50 (RPMI-8226 leukemia) 9.1 µM | GI50 (RXF 393 renal) 2.09 µM | GI50 (SF-268 CNS) 14.3 µM | GI50 (SF-295 CNS) 3.92 µM | GI50 (SF-539 CNS) 3.42 µM | GI50 (SK-MEL-2 melanoma) 2.5 µM | GI50 (SK-MEL-28 melanoma) 6.38 µM | GI50 (SK-MEL-5 melanoma) 2.87 µM | GI50 (SK-OV-3 ovarian) 7.74 µM | GI50 (SN12C renal) > 100 µM | GI50 (SNB-19 CNS) 11.4 µM | GI50 (SNB-75 CNS) 1.66 µM | GI50 (SR leukemia) 2.47 µM | GI50 (SW-620 colon) 3.68 µM | GI50 (T-47D breast) 4.56 µM | GI50 (TK-10 renal) > 100 µM | GI50 (U251 CNS) 4.46 µM | GI50 (UACC-257 melanoma) > 100 µM | GI50 (UACC-62 melanoma) 3.69 µM | GI50 (UO-31 renal) 9.9 µM
5.47 µM: TGI (MDA-MB-468 breast)
86.2 µM: TGI (OVCAR-5 ovarian)
71.9 µM: TGI (HCC-2998 colon)
16.9 µM: TGI (SF-539 CNS)
17.6 µM: TGI (RXF 393 renal)
24.1 µM: TGI (COLO 205 colon)
